Experiments:
Rattus norvegicus [1] = test: Anti-platelet aggregation in Sprague-Dawley rat assessed as inhibition of ADP-induced platelet aggregation at 10 mg/kg, po measured for 15 mins in presence of 10 uM ADP by cell counter analysis relative to control; type: functional; settings: 0.25 h
Plasma [2] = test: Anti-platelet aggregation in platelet-rich plasma of male male Sprague-Dawley rat assessed as inhibition of ADP-induced platelet aggregation preincubated for 15 mins followed by ADP addition measured up to 10 mins by Born's turbidometric method; type: functional, cell-free
Rattus norvegicus [3] = test: Anti-platelet aggregation in Sprague-Dawley rat assessed as inhibition of ADP-induced platelet aggregation at 10 mg/kg, po measured for 15 mins in presence of 5 uM ADP by cell counter analysis relative to control; type: functional; settings: 0.25 h
Plasma [4] = test: Anti-platelet aggregation in platelet-rich plasma of male Japanese white rabbit assessed as inhibition of ADP-induced platelet aggregation preincubated for 15 mins followed by ADP addition measured up to 10 mins by Born's turbidometric method; type: functional, cell-free; settings: Oryctolagus cuniculus
Rattus norvegicus [5] = test: Anti-platelet aggregation in Sprague-Dawley rat assessed as inhibition of ADP-induced platelet aggregation at 10 mg/kg, po measured for 15 mins in presence of 2.5 uM ADP by cell counter analysis relative to control; type: functional; settings: 0.25 h
[6] = Antagonist activity at P2Y12 receptor in platelet-rich plasma of male Japanese white rabbit assessed as inhibition of VASP phosphorylation at Ser239 pretreated for 10 mins followed by PGE1/ADP addition measured after 10 mins by ELISA; type: cell-free; settings: Oryctolagus cuniculus
HT-22 = test: Neuroprotective activity against H2O2-induced oxidative stress in mouse HT-22 cells assessed as cell viability at 10 uM preincubated for 2 hrs followed by H2O2 addition measured after 24 hrs by MTT assay (reference value: 55 +/- 4.6 %); type: functional; settings: time 26 hrs, read-out: Activity
Plasma [7] = test: Anti-platelet aggregation in platelet-rich plasma of male human assessed as inhibition of ADP-induced platelet aggregation preincubated for 15 mins followed by ADP addition measured up to 10 mins by Born's turbidometric method; type: functional, cell-free
P2Y purinoceptor 12 = P2Y purinoceptor 12 (Rattus norvegicus, UniProt Q9EPX4); test: Antagonist activity at P2Y12 receptor in platelet-rich plasma of male Sprague-Dawley rat assessed as inhibition of VASP phosphorylation at Ser239 pretreated for 10 mins followed by PGE1/ADP addition measured after 10 mins by ELISA; type: cell-free
Sequence of P2Y purinoceptor 12 (Q9EPX4 whole entry): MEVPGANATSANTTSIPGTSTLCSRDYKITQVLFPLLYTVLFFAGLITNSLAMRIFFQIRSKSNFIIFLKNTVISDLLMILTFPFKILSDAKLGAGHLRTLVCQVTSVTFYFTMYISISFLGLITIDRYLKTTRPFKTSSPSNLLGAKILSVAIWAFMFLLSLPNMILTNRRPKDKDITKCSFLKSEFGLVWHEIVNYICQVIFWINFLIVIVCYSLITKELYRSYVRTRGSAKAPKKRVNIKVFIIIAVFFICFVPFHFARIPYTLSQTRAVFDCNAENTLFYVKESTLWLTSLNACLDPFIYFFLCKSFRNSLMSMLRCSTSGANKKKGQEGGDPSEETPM

Rattus norvegicus [8] = test: Neuroprotective activity in MCAO-induced brain damage Sprague-Dawley rat model assessed as plasma GSH-px level at 10 mg/kg, iv administered immediately after arterial occlusion measured after 24 hrs; type: functional
P2Y purinoceptor 1 = P2Y purinoceptor 1 (Rattus norvegicus, UniProt P49651); test: Antagonist activity at P2Y1 receptor in platelet-rich plasma of rat assessed as inhibition of ADP-induced cytosolic Ca2+ level pretreated for 5 mins followed by ADP addition by FLUO-4 AM dye based analysis; type: functional, cell-free
Sequence of P2Y purinoceptor 1 (P49651 whole entry): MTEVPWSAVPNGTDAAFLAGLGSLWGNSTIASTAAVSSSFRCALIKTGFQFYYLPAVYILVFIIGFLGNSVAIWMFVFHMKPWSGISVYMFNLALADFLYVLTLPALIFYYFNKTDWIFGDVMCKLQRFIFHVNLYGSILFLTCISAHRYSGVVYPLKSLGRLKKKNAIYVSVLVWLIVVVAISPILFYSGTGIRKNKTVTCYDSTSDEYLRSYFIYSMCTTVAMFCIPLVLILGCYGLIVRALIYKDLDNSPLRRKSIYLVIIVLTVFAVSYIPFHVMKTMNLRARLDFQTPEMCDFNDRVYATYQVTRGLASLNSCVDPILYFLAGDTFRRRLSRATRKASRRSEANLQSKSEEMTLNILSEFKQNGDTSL

[9] = target: P2Y purinoceptor 12 (Rattus norvegicus) (UniProt Q9EPX4); test: Antagonist activity at P2Y12 receptor in platelet-rich plasma of male Sprague-Dawley rat assessed as inhibition of VASP phosphorylation at Ser239 at 30 uM pretreated for 10 mins followed by PGE1/ADP addition measured after 10 mins by ELISA relative to control; type: cell-free; settings: time 20.0 min
Sequence of P2Y purinoceptor 12 (Rattus norvegicus) (Q9EPX4 whole entry): as the sequence (Q9EPX4 whole entry) above

Rattus norvegicus [10] = test: Neuroprotective activity in MCAO-induced brain damage Sprague-Dawley rat model assessed as plasma MDA level at 10 mg/kg, iv administered immediately after arterial occlusion measured after 24 hrs (reference value: 51.7 %); type: functional
[11] = Antagonist activity at P2Y1 receptor in platelet-rich plasma of male Japanese white rabbit assessed as inhibition of ADP-induced cytosolic Ca2+ level pretreated for 5 mins followed by ADP addition by FLUO-4 AM dye based analysis; type: cell-free; settings: Oryctolagus cuniculus
Rattus norvegicus [12] = test: Neuroprotective activity in MCAO-induced brain damage Sprague-Dawley rat model assessed as reduction in brain water content at 10 mg/kg, iv administered immediately after arterial occlusion measured after 24 hrs; type: functional, organism-based
Oryctolagus cuniculus = species on record: Oryctolagus cuniculus; test: Antagonist activity at P2Y12 receptor in platelet-rich plasma of male Japanese white rabbit assessed as inhibition of VASP phosphorylation at Ser239 at 30 uM pretreated for 10 mins followed by PGE1/ADP addition measured after 10 mins by ELISA relative to control; type: cell-free; settings: time 20.0 min
Rattus norvegicus [13] = test: Neuroprotective activity in MCAO-induced brain damage Sprague-Dawley rat model assessed as plasma GSH-px level at 6 mg/kg, iv administered immediately after arterial occlusion measured after 24 hrs; type: functional
Rattus norvegicus [14] = test: Anti-platelet aggregation in Sprague-Dawley rat assessed as inhibition of ADP-induced platelet aggregation at 6 mg/kg, po measured for 15 mins in presence of 5 uM ADP by cell counter analysis relative to control; type: functional; settings: 0.25 h
[15] = Antioxidant activity assessed as inhibition of DPPH radical scavenging activity incubated for 30 mins under dark condition by absorbance based method; type: functional
Rattus norvegicus [16] = test: Neuroprotective activity in MCAO-induced brain damage Sprague-Dawley rat model assessed as reduction in brain infarction size at 6 mg/kg, iv administered immediately after arterial occlusion measured after 24 hrs by TTC staining based analysis relative to control; type: functional; set-up: scale not given: the % may be the effect or the level left
Rattus norvegicus [17] = test: Neuroprotective activity in MCAO-induced brain damage Sprague-Dawley rat model assessed as reduction in brain water content at 6 mg/kg, iv administered immediately after arterial occlusion measured after 24 hrs; type: functional, organism-based
Rattus norvegicus [18] = test: Anti-platelet aggregation in Sprague-Dawley rat assessed as inhibition of ADP-induced platelet aggregation at 6 mg/kg, po measured for 15 mins in presence of 10 uM ADP by cell counter analysis relative to control; type: functional; settings: 0.25 h
Rattus norvegicus [19] = test: Neuroprotective activity in MCAO-induced brain damage Sprague-Dawley rat model assessed as plasma MDA level at 6 mg/kg, iv administered immediately after arterial occlusion measured after 24 hrs (reference value: 51.7 %); type: functional
Rattus norvegicus [20] = test: Anti-platelet aggregation in Sprague-Dawley rat assessed as inhibition of ADP-induced platelet aggregation at 6 mg/kg, po measured for 15 mins in presence of 2.5 uM ADP by cell counter analysis relative to control; type: functional; settings: 0.25 h
Rattus norvegicus [21] = test: Neuroprotective activity in MCAO-induced brain damage Sprague-Dawley rat model assessed as reduction in brain infarction size at 10 mg/kg, iv administered immediately after arterial occlusion measured after 24 hrs by TTC staining based analysis relative to control; type: functional; set-up: scale not given: the % may be the effect or the level left

Structure (SMILES) | inhibition in vivo at 10 mg/kg (Rattus norvegicus [1]) [%] | IC50 (Plasma [2]) [µM] | inhibition in vivo at 10 mg/kg (Rattus norvegicus [3]) [%] | IC50 (Plasma [4]) [µM] | inhibition in vivo at 10 mg/kg (Rattus norvegicus [5]) [%] | viability at 10 µM (HT-22) [%] | IC50 (Plasma [7]) [µM] | Activity (Rattus norvegicus [8]) [U/ml] | IC50 (P2Y purinoceptor 1) [µM] | Activity (Rattus norvegicus [10]) [%] | IC50 [11] [µM] | Activity (Rattus norvegicus [12]) | inhibition (Oryctolagus cuniculus) [%] | further results
CCCSc1nc(N[C@@H]2C[C@H]2c2ccc(F)c(F)c2)c2nnn([C@@H]3C[C@H](OCCO)[C@@H](O)[C@H]3O)c2n1 [TICAGRELOR] | 77.7 | 0.56 | 73.7 | 0.5 | 71.8 | 76 | 0.69 |  |  |  |  |  |  | IC50 [6]: 2.89 µM; IC50 (P2Y purinoceptor 12): 2.11 µM
CC(C)(C)c1ccccc1Oc1ncccc1NC(=O)Nc1ccc(OC(F)(F)F)cc1 | 34.4 | 3.31 | 64.6 | 4.42 | 65.9 | 82.6 | 3.4 | 489.1 | 2.66 | 44.1 | 2.5 | Active; Water Content Did Not Return To Blank Level | 30.3 | inhibition [9]: 37.6%
CC1=NN(c2ccccc2)C(=O)C1 [EDARAVONE] |  |  |  |  |  |  |  |  |  |  |  |  |  | Activity (Rattus norvegicus [13]): 579.3 U/ml; inhibition in vivo at 6 mg/kg (Rattus norvegicus [14]): 48.5%; IC50 [15]: 23.6 µM; Activity (Rattus norvegicus [16]): 35.7%; Activity (Rattus norvegicus [17]): Active; Water Content Did Not Return To Blank Level; inhibition in vivo at 6 mg/kg (Rattus norvegicus [18]): 29.4%; Activity (Rattus norvegicus [19]): 31%; inhibition in vivo at 6 mg/kg (Rattus norvegicus [20]): 55.4%
Cc1nc(-c2cccc(C#N)c2)n(OCc2ccc(C#N)cc2)c1C(=O)O | 19.1 | 3.84 | 35.1 | 3.5 | 34.9 | 81.3 | 4.24 | 677.6 | 2.95 | 48.8 | 4.07 | Active; Water Content Did Not Return To Blank Level | 27.9 | inhibition ([9]; filed as antagonist): 40.8%; Activity (Rattus norvegicus [21]): 33.6%

— ChEMBL document CHEMBL6182910, “Design, Synthesis, and Biological Evaluation of 4-(Difluoromethyl)-1H-imidazole-5-carboxylic Acids/4-(3-Cyanophenoxy)pyrimidine-5-carboxylic Acids as P2Y1 Receptor Antagonists for Ischemic Stroke Treatment” (J Med Chem, 2025)
